These results are taken from the METLIN SMRT retention time set (Domingo-Almenara et al. 2019).

This data set can be described thus: gradient 5% acetonitrile 3 min, to 50% in 2 min, to 85% in 15 min, held 3 min, 100 µL/min. As to conditions: column: Zorbax Extend-C18 2.1 x 50 mm; eluents: water / acetonitrile, 0.1% formic acid. Summed up:
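A Zorbax Extend-C18 column (2.1 × 50 mm, 1.8 μm) run at 100 μL/min with water and acetonitrile, both containing 0.1% formic acid, separated mixtures of ~100 pure standards. The HPLC was coupled to a quadrupole time-of-flight mass spectrometer operated in positive and negative ionization mode, with dead and dwell volumes of 40 μL and 900 μL. Each retention time was taken from a computationally picked adduct peak that was then manually inspected.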
On to `COc1ccc(C(=O)NC2CCN(c3cc(-c4cccs4)[nH]n3)C2)c(C)c1` (stereo not given), for which the RP-LC retention time was determined as 712 s.
Take `CCc1nnc2nc(N3CCN(C(=O)Cc4cc(OC)cc(OC)c4)CC3)cc(C)n12`: the RP-LC retention time was 623 s.
`Cc1cccc(NC(=O)N2CCC(CN3CCCC(C)C3)CC2)c1C` (stereo not given) displayed an RP-LC retention time of 620 s.
The compound `O=C(NCCN1CCCCCC1)C1CCCN(c2ncc(-c3cccc(F)c3)cn2)C1` (stereo not given) had an RP-LC retention time of 715 s.
In the case of `COc1cc(NC(=O)C2CCN(C(=O)C3Sc4ccccc4NC3=O)CC2)cc(OC)c1OC` (stereo not given) it was 707 s.
Consider `Cc1ccc(NC(=O)Cn2c(C)nc3c(sc4nc(-c5ccccc5)ccc43)c2=O)cc1C`, for which the RP-LC retention time is 1120 s.
The result for `O=C(Cc1cccs1)N1CCN(c2ccc(-c3ccco3)nn2)CC1` reads 734 s; that for `CCOc1cc(C(=O)Nc2c(-c3ccc(F)cc3)nc3ccccn23)cc(OCC)c1OCC`, 788 s.
The compound `COc1ccc(-c2csc(NC(=O)/C=C/C(=O)O)n2)cc1` returned an RP-LC retention time of 752 s.
Take `CCCc1noc(-c2cccnc2N2CCCN(Cc3ccc(F)cc3)CC2)n1`: the RP-LC retention time amounted to 729 s.
Compound `Cn1nccc1-c1cccc(-c2noc(-c3ccc(F)cc3F)n2)c1` came in with an RP-LC retention time of 1120 s.
`O=c1oc2c(O)c(O)ccc2c2c1CCC2`: the RP-LC retention time was determined as 655 s.
In the case of `Cc1cccc(Oc2nccn3c(=O)n(CC(=O)NC(C)CCc4ccccc4)nc23)c1C` (stereo not given) it was 976 s; in that of `O=S(=O)(NCCOc1cc(N2CCCC2)ncn1)c1ccc(Cl)s1`, 664 s.
In the case of `Cc1ccc(Cn2c(N3CCC(C(=O)NCC4CC4)CC3)nc3ccsc3c2=O)cc1` it was 879 s; in that of `O=C(COc1ccccc1)Nc1nnc(C2=COCCO2)o1`, 651 s.
In turn, `COc1cccc(OC)c1C(=O)N1CCCC1c1c(C)noc1C` (stereo not given) had an RP-LC retention time of 665 s.
The result for `CCOc1ccc(N2CC(NC(=O)C(=O)c3c[nH]c4ccccc34)CC2=O)cc1` (stereo not given) reads 791 s.
In the case of `COc1ccc2c(c1)C=C(C(=O)Nc1ccccc1F)C=CO2` it was 1020 s; in that of `O=C(Nc1ccccc1)N(Cc1cccnc1)C1CN(Cc2ccc(F)c(F)c2)C1`, 965 s.
In the case of `COc1ccc(Cl)cc1NC(=O)C1CCN(S(=O)(=O)c2cc(-c3noc(C)n3)cs2)CC1` it was 1050 s.
As for `Cc1cc(C(N)=O)c2cccc(Cl)c2n1`, the RP-LC retention time was found to be 621 s.
As for `CCOC(=O)N1CCN(c2cc(C(=O)O)c3cc(NC(=O)c4cccc(C)c4)ccc3n2)CC1`, the RP-LC retention time worked out at 649 s.
`CC(C)(C)NC(=O)NC1CCN(C(=O)C2CC2)C1` (stereo not given) came in with an RP-LC retention time of 610 s.
Turning to `CN(Cc1ccco1)C(=O)C1CCCN(c2nc3cccnc3s2)C1` (stereo not given), the RP-LC retention time was found to be 745 s.
In the case of `Cc1cc(Cl)ccc1S(=O)(=O)N1C[C@@H](F)C[C@H]1C(=O)N1CCCCC1` it was 948 s.
The compound `Cc1nc(-c2ccc(-c3noc(COc4ccc(F)cc4)n3)cc2)cs1` showed an RP-LC retention time of 1160 s.
The result for `COCCC(=O)Nc1cnn(-c2ncc(N3CCCCC3)cn2)c1` reads 667 s.
In the case of `COc1ccc(S(=O)(=O)N2CCc3c(c(-c4nnc(-c5ccccc5)o4)nn3C)C2)cc1Cl` it was 990 s; in that of `Cc1ccc(N2CCN(S(=O)(=O)N(C)C)CC2)cc1Cl`, 990 s.
In the case of `Cc1ccc(CNC(=O)c2c(C)sc3ccn(Cc4ccc(F)cc4)c(=O)c23)o1` it was 980 s; in that of `CCOc1ccc(S(=O)(=O)N2CC(F)(F)C[C@H]2CN2CCc3ccccc3C2)cc1`, 798 s.
Consider `CCOC(=O)C1=C(C)NC(=O)NC1c1c(F)cccc1Cl` (stereo not given), for which the RP-LC retention time was found to be 724 s.
In the case of `CCN1C(=O)c2cc(S(=O)(=O)Nc3ccccc3)ccc2Oc2cccnc21` it was 959 s; in that of `CCCNC(=O)C1CCCN(c2nc3ncn(CC(=O)Nc4cccc(Cl)c4)c(=O)c3s2)C1` (stereo not given), 731 s; in that of `COCCN(Cc1ccc(Cl)cc1)Cc1cc(=O)n2cc(C)ccc2n1`, 662 s.
In the case of `COc1cc(C(=O)OC(C)CN2CCOCC2)cc(OC)c1OC` (stereo not given), the RP-LC retention time was 662 s.
For `CCOc1ccc(-c2noc(Cn3ccnc3)n2)cc1`, the RP-LC retention time was 635 s.
Turning to `CCc1ccc(S(=O)(=O)N2CCC3(CC2)NCCN=C3NCc2cc(F)cc(F)c2)cc1`, the RP-LC retention time came out at 798 s.
The result for `Cc1nc(-c2csc(S(=O)(=O)N3CCC(C(=O)N(C)Cc4ccccc4)CC3)c2)no1` reads 898 s; that for `Cn1c(CCNC(=O)c2cccc(F)c2)nc2cccnc21`, 611 s; that for `CCCNC(=O)CN1c2ccc(F)cc2-c2ccccc2S1(=O)=O`, 824 s.
The result for `COc1ccc(S(=O)(=O)N2CCCC(c3nn[nH]n3)C2)cc1` (stereo not given) reads 714 s; that for `CCOc1ccc(-c2noc(Cn3c(=O)n(C(C)C)c(=O)c4ccccc43)n2)cc1OC`, 1080 s.
The result for `CSc1ccc(NC(=O)N2CCC(c3nc(C(=O)N4CCOCC4)c(C)o3)CC2)cc1` reads 726 s.
As to `COc1ccccc1C(=O)N1CCCC(c2nnc(C)s2)C1` (stereo not given), the RP-LC retention time amounted to 646 s.
Compound `Cc1ccc(-c2nnc(-c3cccc(S(=O)(=O)NC(C)C(=O)O)c3)o2)cc1` (stereo not given) showed an RP-LC retention time of 784 s.
`Cc1ccc(-n2c(=O)c3c(cc(C)n3C)n(CC(=O)Nc3ccccc3Cl)c2=O)cc1` came in with an RP-LC retention time of 900 s.
In the case of `COC1CCC12CCN(C(=O)c1ocnc1C)CC2` (stereo not given) it was 692 s; in that of `Cc1ccc(C(=O)Nc2ccc3c(c2)Sc2ncccc2C(=O)N3C(C)C)c(C)c1`, 962 s.
The compound `COc1ccc(OC)c(S(=O)(=O)NCC2(C)CCOCC2)c1` yielded an RP-LC retention time of 686 s.
The result for `O=C([C@@H]1C[C@H](F)CN1S(=O)(=O)c1cc(F)ccc1F)N1CCCCC1` reads 794 s.
`CC(=O)Nc1ccc(-c2noc(C3CCCN(C(=O)CCC4CCCC4)C3)n2)cc1` (stereo not given) gave an RP-LC retention time of 923 s.
For the compound `Cc1ccc(-n2ncc3c(=O)n(Cc4nc(-c5ccc(Cl)cc5)no4)cnc32)cc1`, the RP-LC retention time came out at 1160 s.
In the case of `CCCC(NC(=O)c1ccc2c(c1)OCO2)C(=O)Nc1nc2ccccc2[nH]1` (stereo not given) it was 670 s; in that of `COCCNC(=O)C1CCCCN1S(=O)(=O)c1ccc(F)cc1` (stereo not given), 769 s.
The result for `C=C(C)COc1ccc2c(C)c(CCC(=O)N3CCN(c4ccccn4)CC3)c(=O)oc2c1C` reads 743 s.
In the case of `Cc1noc(C)c1-c1ccc(S(=O)(=O)NCc2ccco2)cc1` it was 842 s; in that of `Cc1cc(C2CCCN2C(=O)Cc2cccc(F)c2)no1` (stereo not given), 790 s; in that of `CC(C)c1noc(-c2ccc(-n3cnc(C(=O)NC4CCCCC4)c3)nc2)n1`, 741 s.
For `CC(CNC(=O)C1CCN(C(=O)c2ncn3c2COC(c2ccc(F)cc2)C3)CC1)c1ccccc1` (stereo not given), the RP-LC retention time was 754 s.
`CCC(C)NC(=O)c1ccc2c(c1)CC(=O)N2CC` (stereo not given): the RP-LC retention time was 691 s.
Turning to `CCc1cc(C2CCCN2Cc2ccc(OCC(N)=O)c(OC)c2)on1` (stereo not given), the RP-LC retention time stood at 570 s.
Compound `Cc1nc(C)c(C(=O)N(C)C2CCc3nn(CC4CC4)c(=O)n3CC2)s1` (stereo not given) yielded an RP-LC retention time of 626 s.
As for `O=C(COc1ccc(Cl)cc1)NCC1(c2ccc(F)cc2)CC1`, the RP-LC retention time stood at 988 s.
The result for `Cc1ccc(-c2nnc(-c3cccc(S(=O)(=O)NC(C)(C)C)c3)o2)cc1` reads 1030 s; that for `COCC(C)NS(=O)(=O)c1c(C)[nH]c(=O)[nH]c1=O` (stereo not given), 570 s.
The result for `CC(=O)N1CCc2nn(CC(=O)N3CCN(c4ccccc4F)CC3)c(=O)cc2C1` reads 652 s.
In the case of `CC(C)c1ccc(CNC(=O)Cc2nnc(-c3ccc4ncccc4c3)o2)cc1` it was 811 s; in that of `Cc1cccc(-n2c(=O)c3c(cc(C)n3C)n(CC(=O)Nc3ccc(C)c(Cl)c3)c2=O)c1`, 960 s; in that of `CC(C)NC(=O)c1cc2c(n(-c3ccc(C(F)(F)F)cc3)c1=O)CCCC2=O`, 883 s.
In turn, `O=C([C@@H]1C[C@H](F)CN1C(=O)c1cccc(Br)c1)N1CCCCC1` returned an RP-LC retention time of 742 s.
The result for `Cc1ccc2nc(CN3CCN(C(=O)Nc4ccc5c(c4)OCO5)CC3)oc2c1` reads 684 s; that for `O=C1COc2cc(Cl)ccc2N1Cc1nc(-c2cccc(F)c2)no1`, 1100 s; that for `CCN1CCn2cc(S(=O)(=O)N3CCN(c4cccc(C)c4)CC3)cc2C1=O`, 858 s.
The result for `O=C(NCC1CCCCC1)C1CCCN(c2nnc3ccc(Cl)cn23)C1` (stereo not given) reads 839 s; that for `Cc1noc(C)c1CCC(=O)N1CCN(c2ncnc3c2CCC3)CC1`, 576 s; that for `CCN1CCN(CCNC(=O)C2CCN(Cc3cn(C)c4ccc(Cl)cc34)CC2)CC1`, 561 s.
In the case of `Cc1ccc(NC(=O)N2CCC(OC3CCN(S(C)(=O)=O)CC3)CC2)cc1Cl`, the RP-LC retention time is 867 s.
In the case of `NC(=O)C1CCN(CC(=O)Nc2nc(-c3ccccc3)cs2)CC1` it was 588 s.
